Laboratory results: patent US10703733B2, “MCL-1 inhibitors” (Gilead Sciences, Inc., priority 2018, dated 2020)

Experiments:
[1] = molecular target: MCL-1/Bim interaction (recombinant human MCL-1 protein, residues 171-327; biotinylated human Bim peptide, residues 51-76) (Homo sapiens (Human), UniProt Q07820); experiment: MCL-1/Bim Binding AlphaLISA Assay; conditions: 0.0625 nM 6xHis-Mcl-1 (171-327), 0.0625 nM biotinylated-Bim peptide
Summary of the method: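 Protein 0.0625 nM + cpd, 1 h; add biotin-Bim 0.0625 nM, 2 h; acceptor beads 1 h; donor beads 1 h; AlphaScreen read. Buffer 20 mM Hepes pH 7.5, 150 mM NaCl, 1 mM DTT.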

[2] = test system: SKBR3 cells; experiment: SKBR3 Cell Viability Assay (CellTiter Glo); assay type: cell-based; conditions: Homo sapiens, SK-BR-3, 72 h, CellTiter Glo luminescence, read-out: MCL-1 CV SKBR3 EC50
Summary of the method: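 Viability read as CellTiter Glo luminescence after 72 h of compound exposure at 37° C./5% CO2, using 6,000 SKBR3 cells per well in McCoy 5A with 10% FBS. Percent inhibition scaled between DMSO wells and 10 μM puromycin wells.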

Sequence of MCL-1/Bim interaction (recombinant human MCL-1 protein, residues 171-327; biotinylated human Bim peptide, residues 51-76) (Q07820 171-327): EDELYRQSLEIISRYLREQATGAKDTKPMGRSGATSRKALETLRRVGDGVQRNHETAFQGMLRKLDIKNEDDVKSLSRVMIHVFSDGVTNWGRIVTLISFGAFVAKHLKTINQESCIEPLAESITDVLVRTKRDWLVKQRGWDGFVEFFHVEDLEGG

Work on CO[C@H]1/C=C/CCC[S@@](=O)(NC(=O)CCCn2cccn2)=NC(=O)c2ccc3c(c2)N(C[C@@H]2CC[C@H]21)C[C@@]1(CCCc2cc(Cl)ccc21)CO3 [Example 85] yielded an IC50 [1] of 0.6 nM and an EC50 [2] of 3090 nM.
In the case of CO[C@H]1/C=C/CCC[S@@](=O)(NC(=O)Cc2cn3ccccc3n2)=NC(=O)c2ccc3c(c2)N(C[C@@H]2CC[C@H]21)C[C@@]1(CCCc2cc(Cl)ccc21)CO3 [Example 86], the IC50 [1] is reported as 1.8 nM and the EC50 [2] is reported as 4910 nM.
CO[C@H]1/C=C/CCC[S@@](=O)(NC(=O)CCc2ccccc2C(F)(F)F)=NC(=O)c2ccc3c(c2)N(C[C@@H]2CC[C@H]21)C[C@@]1(CCCc2cc(Cl)ccc21)CO3 [Example 87] was tested, and the IC50 [1] was 3.2 nM and the EC50 [2] was 10000 nM.
CO[C@H]1/C=C/CCC[S@@](=O)(NC(=O)CCc2ccco2)=NC(=O)c2ccc3c(c2)N(C[C@@H]2CC[C@H]21)C[C@@]1(CCCc2cc(Cl)ccc21)CO3 [Example 88] showed an IC50 [1] of 1.5 nM and an EC50 [2] of 2570 nM.
CO[C@H]1/C=C/CCC[S@@](=O)(NC(=O)CCc2cc(C)nn2C)=NC(=O)c2ccc3c(c2)N(C[C@@H]2CC[C@H]21)C[C@@]1(CCCc2cc(Cl)ccc21)CO3 [Example 89] gave an IC50 [1] of 0.5 nM and an EC50 [2] of 855 nM.
Work on CO[C@H]1/C=C/CCC[S@@](=O)(NC(=O)CCc2ccc(Cl)cc2)=NC(=O)c2ccc3c(c2)N(C[C@@H]2CC[C@H]21)C[C@@]1(CCCc2cc(Cl)ccc21)CO3 [Example 90] yielded an IC50 [1] of 0.5 nM and an EC50 [2] of 4560 nM.
For CO[C@H]1/C=C/CCC[S@@](=O)(NC(=O)CCc2nccs2)=NC(=O)c2ccc3c(c2)N(C[C@@H]2CC[C@H]21)C[C@@]1(CCCc2cc(Cl)ccc21)CO3 [Example 91], the IC50 [1] was 0.1 nM and the EC50 [2] was 616 nM.
For CO[C@H]1/C=C/CCC[S@@](=O)(NC(=O)CCc2ccnn2CC(F)(F)F)=NC(=O)c2ccc3c(c2)N(C[C@@H]2CC[C@H]21)C[C@@]1(CCCc2cc(Cl)ccc21)CO3 [Example 92], the IC50 [1] was 0.1 nM and the EC50 [2] was 245 nM.
Work on CO[C@H]1/C=C/CCC[S@@](=O)(NC(=O)CCc2scnc2C)=NC(=O)c2ccc3c(c2)N(C[C@@H]2CC[C@H]21)C[C@@]1(CCCc2cc(Cl)ccc21)CO3 [Example 93] yielded an IC50 [1] of 51 nM and an EC50 [2] of 4820 nM.
In the case of CO[C@H]1/C=C/CCC[S@@](=O)(NC(=O)CCC(F)(F)F)=NC(=O)c2ccc3c(c2)N(C[C@@H]2CC[C@H]21)C[C@@]1(CCCc2cc(Cl)ccc21)CO3 [Example 94], the IC50 [1] is reported as 0.9 nM and the EC50 [2] is reported as 902 nM.
With CO[C@H]1/C=C/CCC[S@@](=O)(NC(=O)CCCC(F)(F)F)=NC(=O)c2ccc3c(c2)N(C[C@@H]2CC[C@H]21)C[C@@]1(CCCc2cc(Cl)ccc21)CO3 [Example 95] the IC50 [1] was 1.1 nM and the EC50 [2] was 1100 nM.
In the case of CO[C@H]1/C=C/CCC[S@@](=O)(NC(=O)COc2ccccc2)=NC(=O)c2ccc3c(c2)N(C[C@@H]2CC[C@H]21)C[C@@]1(CCCc2cc(Cl)ccc21)CO3 [Example 96], the IC50 [1] is reported as 0.4 nM and the EC50 [2] is reported as 604 nM.
CO[C@H]1/C=C/CCC[S@@](=O)(NC(=O)CCc2ccccc2)=NC(=O)c2ccc3c(c2)N(C[C@@H]2CC[C@H]21)C[C@@]1(CCCc2cc(Cl)ccc21)CO3 [Example 97] gave an IC50 [1] of 0.6 nM and an EC50 [2] of 788 nM.
CO[C@H]1/C=C/CCC[S@@](=O)(NC(=O)c2cc3ccccc3n2C)=NC(=O)c2ccc3c(c2)N(C[C@@H]2CC[C@H]21)C[C@@]1(CCCc2cc(Cl)ccc21)CO3 [Example 98] gave an IC50 [1] of 0.3 nM and an EC50 [2] of 2190 nM.
CO[C@H]1/C=C/CCC[S@@](=O)(NC(=O)CCc2csc(C)n2)=NC(=O)c2ccc3c(c2)N(C[C@@H]2CC[C@H]21)C[C@@]1(CCCc2cc(Cl)ccc21)CO3 [Example 99] gave an IC50 [1] of 0.2 nM and an EC50 [2] of 2090 nM.
CO[C@H]1/C=C/CCC[S@@](=O)(NC(=O)COc2ccnn2C)=NC(=O)c2ccc3c(c2)N(C[C@@H]2CC[C@H]21)C[C@@]1(CCCc2cc(Cl)ccc21)CO3 [Example 100] gave an IC50 [1] of 0.2 nM and an EC50 [2] of 2260 nM.
With CO[C@H]1/C=C/CCC[S@@](=O)(NC(=O)CCc2ncsc2C)=NC(=O)c2ccc3c(c2)N(C[C@@H]2CC[C@H]21)C[C@@]1(CCCc2cc(Cl)ccc21)CO3 [Example 101] the IC50 [1] was 1.4 nM and the EC50 [2] was 2590 nM.
Molecule CO[C@H]1/C=C/CCC[S@@](=O)(NC(=O)CCc2nnc(C)s2)=NC(=O)c2ccc3c(c2)N(C[C@@H]2CC[C@H]21)C[C@@]1(CCCc2cc(Cl)ccc21)CO3 [Example 102] has an IC50 [1] of 0.3 nM and an EC50 [2] of 891 nM.
With CO[C@H]1/C=C/CCC[S@@](=O)(NC(=O)CCc2c(C)cnn2C)=NC(=O)c2ccc3c(c2)N(C[C@@H]2CC[C@H]21)C[C@@]1(CCCc2cc(Cl)ccc21)CO3 [Example 103] the IC50 [1] was 1 nM and the EC50 [2] was 10000 nM.
Work on CO[C@H]1/C=C/CCC[S@@](=O)(NC(=O)COC2CCOCC2)=NC(=O)c2ccc3c(c2)N(C[C@@H]2CC[C@H]21)C[C@@]1(CCCc2cc(Cl)ccc21)CO3 [Example 105] yielded an IC50 [1] of 0.1 nM and an EC50 [2] of 351 nM.
With CO[C@H]1/C=C/C[C@H](C)C[S@@](=O)(NC(=O)Nc2ncccn2)=NC(=O)c2ccc3c(c2)N(C[C@@H]2CC[C@H]21)C[C@@]1(CCCc2cc(Cl)ccc21)CO3 [Example 111] the IC50 [1] was 0.093 nM and the EC50 [2] was 721 nM.
With CO[C@H]1/C=C/C[C@H](C)C[S@@](=O)(NC(=O)N[C@H]2CCOC2)=NC(=O)c2ccc3c(c2)N(C[C@@H]2CC[C@H]21)C[C@@]1(CCCc2cc(Cl)ccc21)CO3 [Example 112] the IC50 [1] was 0.047 nM and the EC50 [2] was 73.2 nM.
COC(=O)N1CC(NC(=O)N[S@@]2(=O)=NC(=O)c3ccc4c(c3)N(C[C@@H]3CC[C@H]3[C@@H](OC)/C=C/C[C@H](C)C2)C[C@@]2(CCCc3cc(Cl)ccc32)CO4)C1 [Example 114] showed an IC50 [1] of 0.043 nM and an EC50 [2] of 154 nM.
For CO[C@H]1/C=C/C[C@H](C)C[S@@](=O)(NC(=O)N[C@@H]2C[C@@H]2F)=NC(=O)c2ccc3c(c2)N(C[C@@H]2CC[C@H]21)C[C@@]1(CCCc2cc(Cl)ccc21)CO3 [Example 116], the IC50 [1] was 0.08 nM and the EC50 [2] was 141 nM.
In the case of CO[C@H]1/C=C/C[C@H](C)C[S@@](=O)(NC(=O)N[C@H]2C[C@@H]2C)=NC(=O)c2ccc3c(c2)N(C[C@@H]2CC[C@H]21)C[C@@]1(CCCc2cc(Cl)ccc21)CO3 [Example 117], the IC50 [1] is reported as 0.113 nM and the EC50 [2] is reported as 82.9 nM.
Work on CO[C@H]1/C=C/C[C@H](C)C[S@@](=O)(NC(=O)c2cc(Cl)n(C)c2)=NC(=O)c2ccc3c(c2)N(C[C@@H]2CC[C@H]21)C[C@@]1(CCCc2cc(Cl)ccc21)CO3 [Example 118] yielded an IC50 [1] of 0.103 nM and an EC50 [2] of 184 nM.
CO[C@H]1/C=C/C[C@H](C)C[S@@](=O)(NC(=O)c2cnn(C(F)F)c2)=NC(=O)c2ccc3c(c2)N(C[C@@H]2CC[C@H]21)C[C@@]1(CCCc2cc(Cl)ccc21)CO3 [Example 119] was tested, and the IC50 [1] was 0.145 nM and the EC50 [2] was 93.8 nM.
For COCCn1cc(C(=O)N[S@@]2(=O)=NC(=O)c3ccc4c(c3)N(C[C@@H]3CC[C@H]3[C@@H](OC)/C=C/C[C@H](C)C2)C[C@@]2(CCCc3cc(Cl)ccc32)CO4)cn1 [Example 120], the IC50 [1] was 0.167 nM and the EC50 [2] was 106 nM.
With CO[C@H]1/C=C/C[C@H](C)C[S@@](=O)(NC(=O)[C@@H](O)Cc2ccccc2)=NC(=O)c2ccc3c(c2)N(C[C@@H]2CC[C@H]21)C[C@@]1(CCCc2cc(Cl)ccc21)CO3 [Example 121] the IC50 [1] was 0.163 nM and the EC50 [2] was 71.5 nM.
With CO[C@H]1/C=C/C[C@H](C)C[S@@](=O)(NC(=O)[C@H](O)Cc2ccccc2)=NC(=O)c2ccc3c(c2)N(C[C@@H]2CC[C@H]21)C[C@@]1(CCCc2cc(Cl)ccc21)CO3 [Example 122] the IC50 [1] was 0.161 nM and the EC50 [2] was 113 nM.
Molecule CO[C@H]1/C=C/C[C@H](C)C[S@@](=O)(NC(=O)c2cnn(C(C)C)c2)=NC(=O)c2ccc3c(c2)N(C[C@@H]2CC[C@H]21)C[C@@]1(CCCc2cc(Cl)ccc21)CO3 [Example 123] has an IC50 [1] of 0.071 nM and an EC50 [2] of 114 nM.
CO[C@H]1/C=C/C[C@H](C)C[S@@](=O)(NC(=O)COC2(C)CCOCC2)=NC(=O)c2ccc3c(c2)N(C[C@@H]2CC[C@H]21)C[C@@]1(CCCc2cc(Cl)ccc21)CO3 [Example 124] showed an IC50 [1] of 0.066 nM and an EC50 [2] of 95.8 nM.
CO[C@H]1/C=C/C[C@H](C)C[S@@](=O)(NC(=O)C2CC3(CCOC3)C2)=NC(=O)c2ccc3c(c2)N(C[C@@H]2CC[C@H]21)C[C@@]1(CCCc2cc(Cl)ccc21)CO3 (stereo partly shown) [Example 125] was tested, and the IC50 [1] was 0.074 nM and the EC50 [2] was 88.7 nM.
With CO[C@H]1/C=C/C[C@H](C)C[S@@](=O)(NC(=O)c2cn(C)nc2Cl)=NC(=O)c2ccc3c(c2)N(C[C@@H]2CC[C@H]21)C[C@@]1(CCCc2cc(Cl)ccc21)CO3 [Example 126] the IC50 [1] was 0.099 nM and the EC50 [2] was 123 nM.
In the case of CO[C@H]1/C=C/C[C@H](C)C[S@@](=O)(NC(=O)[C@H]2C[C@@H](OC)C2)=NC(=O)c2ccc3c(c2)N(C[C@@H]2CC[C@H]21)C[C@@]1(CCCc2cc(Cl)ccc21)CO3 [Example 127], the IC50 [1] is reported as 0.085 nM and the EC50 [2] is reported as 158 nM.
CO[C@H]1/C=C/C[C@H](C)C[S@@](=O)(NC(=O)[C@H]2C[C@H](OC)C2)=NC(=O)c2ccc3c(c2)N(C[C@@H]2CC[C@H]21)C[C@@]1(CCCc2cc(Cl)ccc21)CO3 [Example 128] showed an IC50 [1] of 0.068 nM and an EC50 [2] of 96.4 nM.
In the case of CO[C@H]1/C=C/C[C@H](C)C[S@@](=O)(NC(=O)N[C@@H]2C[C@H]2c2cnn(C)c2)=NC(=O)c2ccc3c(c2)N(C[C@@H]2CC[C@H]21)C[C@@]1(CCCc2cc(Cl)ccc21)CO3 [Example 129], the IC50 [1] is reported as 0.077 nM and the EC50 [2] is reported as 64.7 nM.
Work on CCn1ccc(C(=O)N[S@@]2(=O)=NC(=O)c3ccc4c(c3)N(C[C@@H]3CC[C@H]3[C@@H](OC)/C=C/C[C@H](C)C2)C[C@@]2(CCCc3cc(Cl)ccc32)CO4)c1 [Example 130] yielded an IC50 [1] of 0.18 nM and an EC50 [2] of 152 nM.
